In patent US20120022048A1, “Anti-proliferative substituted pyrazolo[3,4-d]pyrimidines derivatives (SPP) to inhibit immune activation, virus replication and tumor growth” (priority 2010, published 2012):
“Also recorded” adds a separate entry of the source. Where two headings read alike, the source gives them in different places.

Legend:
[1] = tested on: primary human CD4 T-lymphocytes; experiment: Apoptosis in primary CD4 T cells (Annexin V and 7-AAD staining); assay type: cell-based; settings: for apoptotic effect (in words) / apoptosis %: SPPs 10 μM; for apoptotic effect (in words): compared with HU 100 μM, HU+ddI or untreated control; for apoptosis %: total apoptotic events compared to untreated control, day 10, Imatinib 10 μM, HU 100 μM, ddI 2 μM
Procedure: (§1) Unstimulated (quiescent/resting, day 0 to 5) primary human CD4 T-lymphocytes were obtained by magnetic bead separation from healthy, normal donors. After five days in culture, cells were activated with PHA (5 μg/ml) to induce hyperproliferation then, at day 7, IL-2 (20 U/ml) was added (stimulated, day 6 to 10). All available compounds were tested at a concentration of 10 μM. […] At day 10, cells were harvested. Proliferation of T cells, cultured as described above, was studied by staining the cells with carboxyfluorescein diacetate-succinimidyl ester (CFSE) at day 0 (immediately after infection). For data analysis, the mitotic index (M) was used, calculating the sum of mitotic events at each proliferation cycle. To extract a relative number, M was normalized to the total number of cells acquired using the equation M=Σ[(Xn(T)−Xn(T)/2^n)], that gives the number of mitotic events from the experimentally obtained values of the proportion of T cells under each division peak n (Xn) and the total T cells (T). To study the effect of the compounds on apoptosis T cells were cultured as described above and at day 10 cells were stained with Annexin V and 7-AAD, in order to determine the percentage of total apoptotic events.
We determined the capacity of the compounds to affect the percentages of apoptotic events after 10 days of treatment in primary CD4 T cells.

[2] = tested on: HIV-1 NL 4.3; experiment: HIV-1 replication in quiescent CD4 T cells (p24 Ag ELISA); assay type: cell-based; settings: for inhibition at 10 µM: Human immunodeficiency virus 1, CD4+ T, quiescent cells, read-out: reduction of HIV-1 p24 production / inhibition of HIV replication compared to untreated control; for anti-HIV activity in quiescent cells (in words) / HIV quiescent cells (percentage p24 compared to the untreated control): SPPs 10 μM; for anti-HIV activity in quiescent cells (in words): compared with HU 100 μM, HU+ddI or untreated control; for Antiviral activity in quiescent cells: class symbol, Table 6; for HIV quiescent cells (percentage p24 compared to the untreated control): quiescent CD4 T cells, day 10, HU 100 μM, HU 100 μM+ddI 2 μM
Procedure: Unstimulated (quiescent/resting, day 0 to 5) human CD4 T-lymphocytes, obtained by magnetic bead separation from healthy, normal donors, were infected with HIV-1 NL 4.3. After five days in culture, cells were stimulated with PHA (5 μg/ml) to induce proliferation, and then, at day 7, IL-2 (20 U/ml) was added (stimulated, day 6 to 10). All available compounds were tested at a concentration of 10 μM. HU 100 μM and HU 100 μM+ddI 2 μM were also employed as comparators and the negative control was left untreated. At day 10, cells and supernatants were harvested and HIV-1 p24 Ag was measured by ELISA. HIV replication was expressed as percentage p24 compared to the untreated control.

[3] = tested on: Human peripheral blood mononuclear cells (PBMC); settings: 7 days
[4] = tested on: HIV-1 NL 4.3; experiment: HIV-1 replication in activated T cells (PBMC, p24 Ag ELISA); assay type: cell-based; settings: for inhibition at 10 µM: Human immunodeficiency virus 1, T-cell, read-out: inhibition of p24 production / HIV replication compared to untreated control; for inhibition at 10 µM / HIV activated cells (% p24 compared to not treated control): activated T cells; for anti-HIV activity in activated T cells (in words): SPPs 10 μM, compared with HU 100 μM, HU+ddI or untreated control; for Antiviral activity in activated cells: class symbol, Table 6; for HIV activated cells (% p24 compared to not treated control): 7 days, SPPs and Imatinib 10 μM, HU 100 μM, ddI 2 μM
Procedure: The experimental setup described below allows us to detect direct antiviral activity of a compound.
Human PBMC, obtained from healthy, normal donors, were stimulated for two days with PHA 5 μg/ml. Then cells were infected with HIV-1 NL 4.3, IL-2 was added (20 U/ml), cells were plated (10^5 cells per well in 200 μl) and drug treatment started. […] The control was left untreated. After 7 days of incubation at 37° C. supernatants were harvested and HIV-1 p24 Ag was measured by ELISA.

[5] = tested on: primary human CD4 T-lymphocytes; experiment: Cell hyperproliferation in primary T cells (CFSE staining, mitotic index); assay type: cell-based; settings: for anti-proliferative activity (in words) / mitotic index %: SPPs 10 μM, Imatinib 10 μM; for anti-proliferative activity (in words): compared with HU 100 μM, HU+ddI or untreated control; for Anti-proliferative capacity: class symbol, Table 6; for mitotic index %: % of not treated control (100%), day 10; for mitotic index % / decrease/inhibition of cell proliferation compared to not treated control: HU 100 μM; for decrease/inhibition of cell proliferation compared to not treated control: SPPs and Imatinib 10 μM
Procedure: We built up an experimental model using primary T cells to study the activity of the compounds on induced hyperproliferation of cells, which is a characteristic of both chronic viral diseases and cancer including HIV and leukemia.
as §1

[6] = tested on: Human peripheral blood mononuclear cells (PBMC); experiment: Cell cycle analysis of anti-CD3/anti-CD28 stimulated PBMC (Ki-67 and 7-AAD flow cytometry); assay type: cell-based; settings: 24 hours treatment; compared to the not treated control; FIG. 6
Procedure: A 48 well plate was coated with anti-CD3 antibody by dispensing 100 microliter of a 10 μg/ml antibody solution followed by overnight incubation at 4° C. Human peripheral blood mononuclear cells (PBMC), obtained from healthy, normal donors, were then plated (2×10^6 cells per well in 1 ml) in complete culture medium supplemented with anti-CD28 antibody (2 μg/ml). Stimulated cells were cultured for 2 days then treated with HU, CsA, and VS1-002 to induce cell cycle arrest.

[7] = % of not treated control (100%), SPPs 10 μM, Imatinib 10 μM, HU 100 μM, HU 100 μM+ddI 2 μM

| Structure (SMILES) | apoptotic effect (in words) [1] | inhibition at 10 µM [2] | anti-HIV activity in quiescent cells (in words) [2] | % viability ([3]; human, 10 μM) | inhibition at 10 µM [4] | anti-HIV activity in activated T cells (in words) [4] | anti-proliferative activity (in words) [5] | apoptosis % [1] | HIV quiescent cells (percentage p24 compared to the untreated control) [2] | % viability [3, 7] | HIV activated cells (% p24 compared to not treated control) [4] | mitotic index % [5] | decrease/inhibition of cell proliferation compared to not treated control [5] | also measured |
| --- | --- | --- | --- | --- | --- | --- | --- | --- | --- | --- | --- | --- | --- | --- |
| CSc1nc(NCCc2ccccc2)c2cnn(CC(Cl)c3ccccc3)c2n1 (stereo not shown) [VS1-004, 1-(2-chloro-2-phenylethyl)-6-(methylthio)-N-(2-phenylethyl)-1H-pyrazolo[3,4-d]pyrimidin-4-amine] | only induced a small apoptotic effect; also recorded: same level; also recorded: slight increase | 93% | good antiviral potency; also recorded: as effective as HU+ddI | 74.9 ± 13.8% | 88% | good antiviral potency; also recorded: as effective as HU+ddI | as anti-proliferative as 100 μM HU; also recorded: as effective as HU+ddI; also recorded: as effective as 100 μM HU | – | – | – | – | – | – | Antiviral activity in quiescent cells [2]: +++ (excellent (+++, greater than 70% activity)); Antiviral activity in activated cells [4]: +++ (excellent (+++, greater than 70% activity)); Anti-proliferative capacity [5]: +++ (excellent (+++, greater than 70% activity)) |
| CCOCCNc1nc(SC)nc2c1cnn2CC(Cl)c1ccccc1 (stereo not shown) [VS1-033] | – | – | – | – | – | – | comparable or even greater than HU | 138.6 ± 49.7% | 15.0 ± 3.0% | 108.1 ± 3.5% | 57.1 ± 10.2% | 15.4 ± 6.7% | – | – |
| NC(=O)NO [HU, hydroxyurea, reference compound] | no significant increases; also recorded: did not substantially affect the percentage of total apoptotic events | – | potent antiviral activity | – | – | not effective in inhibiting HIV replication | did substantially decrease cell proliferation | – | – | – | – | – | – | effect on cell cycle phases (in words) [6]: decreased the percentage of cells in S phase with an increase in the percentage of cells in G1 phase; inhibition at 100 µM ([5]; Homo sapiens, T-lymphocyte, read-out: decrease/inhibition of cell proliferation compared to not treated control): 74% |
| ClC(Cn1ncc2c(NCc3ccccc3)ncnc21)c1ccccc1 (stereo not shown) [VS1-010, N-benzyl-1-(2-chloro-2-phenylethyl)-1H-pyrazolo[3,4-d]pyrimidin-4-amine] | induced apoptosis; also recorded: more proapoptotic; also recorded: slight increase | 89% | active as antivirals; also recorded: good activity against HIV | 40.9 ± 35.8% | 88% | active as antivirals; also recorded: good activity against HIV | increased anti-proliferative capacity compared to 100 μM HU | – | – | – | – | – | 99% | more anti-proliferative than HU+ddI ([5]; 10 μM, spider graph FIG. 3): 20% |
| CSc1nc(Nc2cccc(Cl)c2)c2cnn(CC(Cl)c3ccccc3)c2n1 (stereo not shown) [VS1-011, N-(3-chlorophenyl)-1-(2-chloro-2-phenylethyl)-6-(methylthio)-1H-pyrazolo[3,4-d]pyrimidin-4-amine] | induced apoptosis; also recorded: extremely proapoptotic; also recorded: strongly proapoptotic | 80% | active as antivirals | 70.4 ± 16.9% | 85% | active as antivirals | increased anti-proliferative capacity compared to 100 μM HU | – | – | – | – | – | 100% | increase in apoptotic events compared to the control ([1]; 10 μM, 10 days): 182% |
| CSc1nc(NCc2ccccc2)c2cnn(CC(Cl)c3ccccc3)c2n1 (stereo not shown) [VS1-003, 1-(2-chloro-2-phenylethyl)-6-(methylthio)-N-benzyl-1H-pyrazolo[3,4-d]pyrimidin-4-amine] | no effect on apoptosis; also recorded: did not affect the percentage of apoptotic events; also recorded: did not induce apoptosis | 95% | about as effective as VS1-002 | 103.4 ± 4.0% | 76% | slightly less potent; also recorded: slightly inferior anti-HIV capacity; also recorded: about as effective as VS1-002 | slightly less potent; also recorded: little inferior anti-proliferative capacity compared to HU; also recorded: somewhat less than that of VS1-002 | – | – | – | – | – | – | Antiviral activity in quiescent cells [2]: +++ (excellent (+++, greater than 70% activity)); Antiviral activity in activated cells [4]: +++ (excellent (+++, greater than 70% activity)); Anti-proliferative capacity [5]: ++ (good (++, 50 to 70% activity)) |
| OCCNc1nc(NCc2ccccc2)c2cnn(C=Cc3ccccc3)c2n1 [VS1-015] | – | – | – | – | – | better anti-HIV activity than HU | – | 63.9 ± 9.2% | 7.6 ± 2.8% | 82.0 ± 5.8% | 15.3 ± 2.4% | 55.4 ± 6.0% | – | – |
| CCN(CC)c1nc(SC)nc2c1cnn2CC(Cl)c1ccccc1 (stereo not shown) [VS1-032] | – | – | – | – | – | – | comparable or even greater than HU | 131.8 ± 58.6% | 19.7 ± 7.2% | 99.1 ± 3.7% | 59.3 ± 8.1% | 22.0 ± 14.5% | – | – |
| CSc1nc(NCCc2ccccc2)c2cnn(C=Cc3ccccc3)c2n1 [VS1-005, 1-styryl-6-methylthio-N-(2-phenylethyl)-1H-pyrazolo[3,4-d]pyrimidin-4-amine] | did not induce apoptosis; also recorded: no effect on apoptosis; also recorded: did not affect the percentage of apoptotic events | 97% | strong anti-HIV activity; also recorded: same antiviral power | 84.3 ± 22.7% | – | active also against HIV in activated T cells; also recorded: same antiviral power; also recorded: same antiviral activity | slightly lower compared to HU | – | – | – | – | – | 27% | anti-proliferative capacity less than HU+ddI ([5]; 10 μM, spider graph FIG. 3): 50% |
